In experiment [1] the target is RON (Homo sapiens, UniProt Q04912). As to the kind of experiment: RON inhibitory activity, TR-FRET kinase assay. The experiment is classed as biochemical. The settings on record: RON protein, ULight-labeled Poly GT substrate. Put shortly: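 RON was preincubated with compound for 20-30 min at room temperature in HEPES buffer (pH 7.4) with MgCl2 and DTT. Phosphorylation of ULight-Poly GT with ATP ran 60 min before EDTA stop. Europium anti-phosphotyrosine TR-FRET (ex 340, em 620/665 nm) was read and IC50 derived from 10-point 3-fold dilutions.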
On the technique in general: In TR-FRET formats the signal depends on donor and acceptor labels being close together.

Experiment [2] concerns the target cMET (Homo sapiens, UniProt P08581). The experiment is described as follows: MET (cMET) enzyme inhibitory activity, TR-FRET kinase assay. In kind it is biochemical. Particulars: cMET protein, TK peptide substrate. Put shortly:
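cMET diluted to 2 nM was preincubated 20–30 min at room temperature with compound (10-point 3-fold series from 1 mM DMSO stock). The reaction was started with TK peptide/ATP substrate mix prepared at 2× final (5 μM peptide, 10 mM ATP), run 60 min at room temperature in HEPES pH 7.4 buffer with MnCl2/MgCl2, then EDTA-stopped. Europium anti-phosphotyrosine TR-FRET (ex 340, em 620/665 nm) gave IC50.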

The structures appear in SMILES notation.

Consider 6 molecules from patent US20260217673A1, “NOVEL COMPOUND AS RON INHIBITOR” (LG CHEM, LTD., priority 2022, published 2026).

Usually IC50 stands for the concentration that gives 50% inhibition. A higher IC50 goes with lower potency.

Chain of RON (Q04912 25-1400, species assumed): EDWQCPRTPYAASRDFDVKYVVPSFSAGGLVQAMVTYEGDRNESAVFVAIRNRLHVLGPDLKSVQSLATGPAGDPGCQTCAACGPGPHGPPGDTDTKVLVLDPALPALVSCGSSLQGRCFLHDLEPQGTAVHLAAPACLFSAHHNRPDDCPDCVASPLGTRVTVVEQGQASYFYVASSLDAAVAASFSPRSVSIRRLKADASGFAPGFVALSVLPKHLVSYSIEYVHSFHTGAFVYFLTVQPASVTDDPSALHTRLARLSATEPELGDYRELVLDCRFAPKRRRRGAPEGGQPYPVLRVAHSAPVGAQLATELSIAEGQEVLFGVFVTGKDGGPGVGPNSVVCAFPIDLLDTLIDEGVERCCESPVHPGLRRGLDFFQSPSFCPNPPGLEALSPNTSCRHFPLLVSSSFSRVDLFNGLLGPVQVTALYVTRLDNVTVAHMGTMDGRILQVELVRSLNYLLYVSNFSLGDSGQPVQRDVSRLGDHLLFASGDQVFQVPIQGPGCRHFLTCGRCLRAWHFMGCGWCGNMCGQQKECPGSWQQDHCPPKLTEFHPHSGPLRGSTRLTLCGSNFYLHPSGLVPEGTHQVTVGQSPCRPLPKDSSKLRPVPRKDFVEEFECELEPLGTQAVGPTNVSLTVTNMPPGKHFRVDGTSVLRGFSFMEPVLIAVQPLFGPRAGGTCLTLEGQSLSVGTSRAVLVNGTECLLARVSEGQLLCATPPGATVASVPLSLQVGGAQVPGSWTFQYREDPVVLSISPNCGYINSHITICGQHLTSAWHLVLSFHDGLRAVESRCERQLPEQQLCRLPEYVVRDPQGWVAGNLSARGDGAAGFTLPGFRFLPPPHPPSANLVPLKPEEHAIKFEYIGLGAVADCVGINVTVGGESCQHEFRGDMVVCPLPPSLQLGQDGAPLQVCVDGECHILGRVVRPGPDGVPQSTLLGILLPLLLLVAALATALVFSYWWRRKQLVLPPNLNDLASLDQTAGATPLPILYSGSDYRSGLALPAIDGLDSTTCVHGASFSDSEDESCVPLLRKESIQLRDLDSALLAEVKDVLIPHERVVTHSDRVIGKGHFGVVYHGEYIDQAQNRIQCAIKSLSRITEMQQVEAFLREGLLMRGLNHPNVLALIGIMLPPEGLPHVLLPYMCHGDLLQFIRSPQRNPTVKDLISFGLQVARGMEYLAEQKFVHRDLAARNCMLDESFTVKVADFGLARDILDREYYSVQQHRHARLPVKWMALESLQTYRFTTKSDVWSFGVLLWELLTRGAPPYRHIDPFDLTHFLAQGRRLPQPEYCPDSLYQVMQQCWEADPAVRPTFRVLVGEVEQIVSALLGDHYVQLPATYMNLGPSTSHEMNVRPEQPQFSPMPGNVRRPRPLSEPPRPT
Chain of cMET (P08581 25-1390): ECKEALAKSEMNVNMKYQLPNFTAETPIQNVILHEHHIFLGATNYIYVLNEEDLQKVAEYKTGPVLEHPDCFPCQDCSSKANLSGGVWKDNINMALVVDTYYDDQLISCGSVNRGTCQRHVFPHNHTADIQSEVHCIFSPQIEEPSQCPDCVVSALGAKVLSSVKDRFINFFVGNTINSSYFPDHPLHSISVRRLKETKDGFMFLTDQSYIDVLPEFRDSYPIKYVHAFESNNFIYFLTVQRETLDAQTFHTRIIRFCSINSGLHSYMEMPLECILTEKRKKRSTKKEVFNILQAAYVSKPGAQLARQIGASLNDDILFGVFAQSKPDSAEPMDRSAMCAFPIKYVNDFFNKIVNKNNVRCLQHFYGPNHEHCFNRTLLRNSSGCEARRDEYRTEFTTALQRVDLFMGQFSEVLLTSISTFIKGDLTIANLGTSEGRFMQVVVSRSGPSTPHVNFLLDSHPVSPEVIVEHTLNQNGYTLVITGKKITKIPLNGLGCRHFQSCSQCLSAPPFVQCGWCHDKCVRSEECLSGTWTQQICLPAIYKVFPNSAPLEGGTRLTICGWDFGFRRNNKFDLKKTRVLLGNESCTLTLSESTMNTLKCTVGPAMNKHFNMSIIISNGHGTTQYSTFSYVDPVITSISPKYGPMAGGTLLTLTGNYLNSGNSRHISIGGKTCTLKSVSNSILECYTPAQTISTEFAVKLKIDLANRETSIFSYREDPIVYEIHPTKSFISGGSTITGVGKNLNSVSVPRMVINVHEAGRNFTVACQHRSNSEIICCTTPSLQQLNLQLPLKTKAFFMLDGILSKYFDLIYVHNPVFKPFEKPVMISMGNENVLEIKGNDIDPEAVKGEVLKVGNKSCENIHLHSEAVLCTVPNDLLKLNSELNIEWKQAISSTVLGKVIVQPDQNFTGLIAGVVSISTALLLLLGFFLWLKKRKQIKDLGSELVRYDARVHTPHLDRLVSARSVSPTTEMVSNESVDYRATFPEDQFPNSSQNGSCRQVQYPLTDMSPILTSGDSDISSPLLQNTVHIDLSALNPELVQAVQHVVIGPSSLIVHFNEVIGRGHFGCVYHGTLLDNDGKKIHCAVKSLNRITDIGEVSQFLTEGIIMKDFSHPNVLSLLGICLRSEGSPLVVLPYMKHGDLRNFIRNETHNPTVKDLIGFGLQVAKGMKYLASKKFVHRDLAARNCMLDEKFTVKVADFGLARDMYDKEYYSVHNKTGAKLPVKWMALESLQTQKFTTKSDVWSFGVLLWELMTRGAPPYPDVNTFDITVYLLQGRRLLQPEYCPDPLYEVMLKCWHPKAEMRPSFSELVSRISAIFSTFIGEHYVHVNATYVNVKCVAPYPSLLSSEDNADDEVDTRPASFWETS

As to `Nc1nccc(Oc2c(F)cc(NC(=O)c3cnn(-c4cccnn4)c3C(F)(F)F)cc2F)c1C#CCO` [Example 56, N-(4-((2-amino-3-(3-hydroxyprop-1-yn-1-yl)pyridin-4-yl)oxy)-3,5-difluorophenyl)-1-(pyridazin-3-yl)-5-(trifluoromethyl)-1H-pyrazole-4-carboxamide], the IC50 in experiment [1] is under 0.05 µM; in experiment [2], 0.05 to 0.5 µM.
Taken in the same sequence, the figures for `CC(O)C#Cc1c(Oc2c(F)cc(NC(=O)c3cnn(-c4ncccc4F)c3C(F)(F)F)cc2F)ccnc1N` (stereo not drawn) [Example 57, N-(4-((2-amino-3-(3-hydroxybut-1-yn-1-yl)pyridin-4-yl)oxy)-3,5-difluorophenyl)-1-(3-fluoropyridin-2-yl)-5-(trifluoromethyl)-1H-pyrazole-4-carboxamide] were under 0.05 µM and 0.05 to 0.5 µM.
Taken in the same sequence, the figures for `CC(C)(O)C#Cc1c(Oc2c(F)cc(NC(=O)c3cnn(-c4ncccc4F)c3C(F)(F)F)cc2F)ccnc1N` [Example 58, N-(4-((2-amino-3-(3-hydroxy-3-methylbut-1-yn-1-yl)pyridin-4-yl)oxy)-3,5-difluorophenyl)-1-(3-fluoropyridin-2-yl)-5-(trifluoromethyl)-1H-pyrazole-4-carboxamide] were under 0.05 µM and 0.05 to 0.5 µM.
The like results for `COCCCN1CCC(n2ncc(C(=O)Nc3cc(F)c(Oc4ccnc(N)c4Cl)c(F)c3)c2C(F)(F)F)CC1` [Example 59, N-(4-((2-amino-3-chloropyridin-4-yl)oxy)-3,5-difluorophenyl)-1-(1-(3-methoxypropyl)piperidin-4-yl)-5-(trifluoromethyl)-1H-pyrazole-4-carboxamide] were, in that order, 0.5 to 5 µM and over 5 µM.
As to `CCOCC(=O)N1CCC(n2ncc(C(=O)Nc3cc(F)c(Oc4ccnc(N)c4Cl)c(F)c3)c2C(F)(F)F)CC1` [Example 60, N-(4-((2-amino-3-chloropyridin-4-yl)oxy)-3,5-difluorophenyl)-1-(1-(2-ethoxyacetyl)piperidin-4-yl)-5-(trifluoromethyl)-1H-pyrazole-4-carboxamide], the half-maximal inhibitory concentration (IC50) in experiment [1] and in experiment [2] was 0.5 to 5 µM throughout.
In the case of `COCCCn1ncc(C(=O)Nc2cc(F)c(Oc3ccnc(N)c3Cl)c(F)c2)c1C(F)(F)F` [Example 61, N-[4-[(2-amino-3-chloro-4-pyridyl)oxy]-3,5-difluoro-phenyl]-1-(3-methoxypropyl)-5-(trifluoromethyl)pyrazole-4-carboxamide], the IC50 in experiment [1] was in the range of 0.05 to 0.5 µM; in experiment [2], 0.5 to 5 µM.
